Our source for the EC50 and IC50 values is ChEMBL document CHEMBL1143621, “Identification and structure-activity relationship of phenolic acyl hydrazones as selective agonists for the estrogen-related orphan nuclear receptors ERRbeta and ERRgamma” (J Med Chem, 2005).

In assay [1] the target is T1, Estrogen-related receptor gamma (Homo sapiens, UniProt P62508).
T1 sequence (P62508 whole entry): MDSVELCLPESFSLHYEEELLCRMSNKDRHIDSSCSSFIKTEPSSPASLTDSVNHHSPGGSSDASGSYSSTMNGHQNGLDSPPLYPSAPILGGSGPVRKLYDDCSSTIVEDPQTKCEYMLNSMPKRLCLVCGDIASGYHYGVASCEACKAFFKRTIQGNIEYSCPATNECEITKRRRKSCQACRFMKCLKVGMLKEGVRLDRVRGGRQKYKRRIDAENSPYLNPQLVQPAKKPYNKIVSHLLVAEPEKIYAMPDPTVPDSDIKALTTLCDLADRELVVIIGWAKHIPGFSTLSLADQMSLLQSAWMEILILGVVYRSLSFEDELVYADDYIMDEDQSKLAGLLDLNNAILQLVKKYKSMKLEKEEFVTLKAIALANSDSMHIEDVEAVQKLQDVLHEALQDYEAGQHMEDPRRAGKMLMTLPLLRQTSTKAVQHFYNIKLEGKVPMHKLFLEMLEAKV
Nature of the assay: Estrogen-Related Receptor gamma activity in FRET assay; i.a.=inactive at 3 uM. Format: functional.

Assay [2] has as its target T1, Estrogen-related receptor gamma. Nature of the assay: Estrogen-Related Receptor gamma activity in FRET assay. It counts as functional.
The target is the same in assay [3]. Nature of the assay: Inhibition of [3H]4-OHT binding to Estrogen-Related Receptor gamma.

pEC50, pIC50: −log10 of the molar value.

In the case of `CCN(CC)c1ccc(/C=N/NC(=O)c2ccc(O)cc2)c(O)c1`, the EC50 entry in assay [1] was “Not Active”.

For the molecule `CCN(CC)c1ccc(/C=N/NS(=O)(=O)c2ccc(O)cc2)cc1`, in assay [1], the EC50 result is reported as “Not Active”.

As a reminder, the pEC50 is the negative decadic logarithm of the EC50, by convention in mol/L. A high value points to a small EC50. For `CCN(CC)c1ccc(/C=N/NC(=O)c2ccc(N)cc2)cc1`, in assay [2], the pEC50 is 6.20.

What is called pIC50 is the IC50 on a negative log10 scale, so that one unit is a factor of ten. Molecule `CCN(CC)c1ccc(/C=N/NC(=O)c2ccc(O)cc2)cc1` showed a pIC50 in assay [3] of 6.18. Besides, the pEC50 in assay [2] was 6.89.

On to `CC(C)(C)Oc1ccc(/C=N/NC(=O)c2ccc(O)cc2)cc1`, for which the EC50 entry in assay [1] is “Not Active”.

`CCN(CC)c1ccc(/C(C)=N/NC(=O)c2ccc(O)cc2)cc1` showed a pEC50 in assay [2] of 6.30.

Take `CCN(CC)c1ccc(/C=N/NC(=O)c2ccc(F)cc2)cc1`: the EC50 result in assay [1] is listed as “Not Active”.

On to `CC(C)c1ccc(C(=O)NNC(=O)c2ccc(O)cc2)cc1`, for which the EC50 result in assay [1] was “Not Active”.

In assay [2], `CCN(CC)c1ccc(/C=N/NC(=O)c2ccccc2)cc1` showed a pEC50 of 5.80.
